Reference: PubChem BioAssay (NCI)
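Compound exposure: 48 hours, 5 concentrations, 96-well plates. TGI denotes the concentration required for complete inhibition of growth.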

Columns and labels:
Assay in all cases: NCI-60 cell line screen, 48 h
OVCAR-3 ovarian = test system: OVCAR-3 ovarian
BT-549 breast = test system: BT-549 breast
HOP-92 NSCLC = test system: HOP-92 NSCLC
RPMI-8226 leukemia = test system: RPMI-8226 leukemia
A549 NSCLC = test system: A549 NSCLC
COLO 205 colon = test system: COLO 205 colon
NCI-H23 lung = test system: NCI-H23 lung
MALME-3M melanoma = test system: MALME-3M melanoma
HS 578T breast = test system: HS 578T breast
U251 CNS = test system: U251 CNS
NCI-H460 lung = test system: NCI-H460 lung
SNB-75 CNS = test system: SNB-75 CNS
SN12C renal = test system: SN12C renal
KM12 colon = test system: KM12 colon
RXF 393 renal = test system: RXF 393 renal
UO-31 renal = test system: UO-31 renal
CCRF-CEM leukemia = test system: CCRF-CEM leukemia
UACC-62 melanoma = test system: UACC-62 melanoma

SMILES	TGI (OVCAR-3 ovarian) [µM]	TGI (BT-549 breast) [µM]	TGI (HOP-92 NSCLC) [µM]	TGI (RPMI-8226 leukemia) [µM]	TGI (A549 NSCLC) [µM]	TGI (COLO 205 colon) [µM]	TGI (NCI-H23 lung) [µM]	TGI (MALME-3M melanoma) [µM]	TGI (HS 578T breast) [µM]	TGI (U251 CNS) [µM]	TGI (NCI-H460 lung) [µM]	TGI (SNB-75 CNS) [µM]	TGI (SN12C renal) [µM]	TGI (KM12 colon) [µM]	TGI (RXF 393 renal) [µM]	TGI (UO-31 renal) [µM]	TGI (CCRF-CEM leukemia) [µM]	TGI (UACC-62 melanoma) [µM]
Nc1ccc(Oc2ccc(C3(c4ccc(Oc5ccc(N)cc5)cc4)C4CC5CC(C4)CC3C5)cc2)cc1	9.78	> 49.2	35.9	17.4	42.2	> 100	> 48.3	> 64.2	> 100	21.5	> 100	> 100	21.9	17.7	20.9	21.4	35.8	49.1
COc1ccc(C2=C(N)c3c(Cl)cccc3C2=O)cc1	> 100	> 100	> 100	> 100	> 100	> 100	> 100	> 100	> 100	> 100	> 100	> 100	> 100	> 100			> 100	> 100
COC(=O)c1ccccc1NC(=NC1CCCCCC1)NS(=O)(=O)c1ccc(C)cc1	> 100	> 100	> 100	> 100	> 100	> 100	> 100		> 100	> 100	> 100	> 100	> 100	> 100	> 100	> 100	> 100	> 100
O=C(OCc1ccc([N+](=O)[O-])cc1)N1c2ccccc2[C@@]23O[C@]24CCC[C@H]3C#C/C=C\C#C[C@H]14	> 100	> 100	> 100		> 100	> 100	> 100	> 100	> 100	> 100	> 100		> 100	> 100	> 100	> 100	> 100	> 100
Cc1cc(C)c(O)c(CN2CCN(C(C)C)CCN(C(C)C)CC2)c1	> 100	54	65.2	> 100	> 100	60.8		31.9	> 100	> 100	> 100	> 100	83.9	46.5	45	82.9	83.9	> 100
Cc1ccc(-c2n[nH]c(=O)n2NC(=O)c2ccccc2C(=O)O)cc1	> 100	> 100	> 100	> 100	> 100		> 100	> 100	> 100	> 100	> 100	> 100	> 100	> 100	> 100	> 100		> 100
CCOC(=O)C1(N)CCc2[nH][nH]c(=O)c2C1 (stereo not given)	> 100	> 100	> 100	> 100	> 100	> 100	> 100	> 100	> 100	> 100	> 100	> 100		> 100		> 100	> 100	> 100
COc1cc2oc(-c3ccc4c(c3)OCO4)c(OC)c(=O)c2c(OC)c1O	> 100	> 100	89.4		> 100	> 100	> 100	> 100	> 100	> 100	> 100	97.6	> 100	> 100	> 100	> 100	> 100	> 100
CN(C)CCCSc1nc2c(c(=N)n1-c1ccccc1)c(=S)n(-c1ccccc1)c(=S)n2-c1ccccc1	3.12	3.38	3.24	1.84	4.58	3.94	4.45	3.6	> 100	3.19	3.24	3.05	3.18	3.5	3.06		2.41	3.23
COc1ccc(-c2cc(-c3ccc(O)cc3O)c(C#N)c(=O)[nH]2)cc1	48.6	55.9	31	43.5	62	31.6	71.1	70.4	48.1	41	59.7		40.9	> 100	35.4	69.6	56.7	36.2
CC1=NC2c3c(-c4ccc(Cl)cc4)cn(-c4ccc(C)cc4)c3N=CN2N1 (stereo not given)	> 100	> 100	63.3		> 100	> 100	> 100	> 100	38.4	> 100	> 100	97.9	> 100		> 100	> 100	> 100	> 100
O=c1/c(=C/c2ccc([N+](=O)[O-])o2)sc2n1[C@@H](c1ccc(Cl)cc1)C=C(c1cc(F)c(Cl)cc1Cl)N=2		28.7	28.5	25.9	86.9	16.2	39.4	33.9	> 100	21.7	24.3	> 100	19.5	> 100	28.5	32.5	> 100	29.2
O=[N+]([O-])c1ccc(Oc2c(Cl)cc(S(=O)(=O)/N=C(\NO)Nc3ccc(Cl)cc3)cc2Cl)c(Cl)c1	24.7	29	31.2	34.3	32.1	35.5	34.5	28.3	36	30.8	37.2		27.4	28.4	26.5	26.5	98.4	27.5
N#Cc1ccc(N2CCOCC2)cc1	> 100	> 100	> 100		> 100	> 100	> 100		> 100	> 100	> 100	> 100	> 100	> 100	> 100	> 100	> 100	> 100
CC(=O)OCC1OC(n2c3c(cc(C#N)c2=S)CCC3)C(OC(C)=O)C(OC(C)=O)C1OC(C)=O (stereo not given)		> 100	> 100	> 100	> 100	> 100	> 100	> 100	> 100	> 100	> 100	> 100	> 100	> 100	> 100	> 100	> 100	> 100
O=C(NNC1=NCCCCN1)Nc1ccc(Cl)cc1	> 100	> 100	> 100	> 100	> 100	> 100	> 100	> 100	> 100	> 100	> 100	> 100		> 100	> 100	> 100	> 100	> 100
Cc1ccc(N=NC(=Nc2ccc(Cl)cc2)c2ccc(N(CCC#N)CCC#N)cc2)cc1	> 100	> 100	> 100	> 100	> 100	55.6	> 100		> 100	59.5	> 100	> 100	> 100	> 100	> 100	> 100	> 100	> 100
COc1cc(/C=N\c2nc(-c3ccc(NS(=O)(=O)c4ccc(Cl)c(OC)c4)cc3)cs2)ccc1O	> 100	83	> 100	74.2	> 100	> 100	88.8	> 100	> 100			> 100	> 100	> 100	80.8	> 100	> 100	36.5
CC(Oc1ccccc1Cl)C(=O)NN1C(=O)CC(=O)NC1=S (stereo not given)	> 100	> 100	> 100	> 100	> 100	> 100	> 100	> 100	> 100	> 100	> 100	> 100	> 100	> 100	> 100	> 100		> 100
Clc1ccc(C(Cc2cccc(Cl)c2)c2c(Cl)nc(N3CCNCC3)nc2Cl)cc1 (stereo not given)	29.2	39.1	27.1	52.2	29.5	11.9	34.1	26.4	38.8	30	30.9	26.7		26.8		25.8	31.9	36.7
C=CCN1C[C@H](C)N([C@@H](c2ccc(C(=O)N3CCCCC3)cc2)c2cccc(OC)c2)C[C@H]1C	> 100	> 100	> 100		> 100	30.6	> 100	40.7	> 100	> 100	> 100	> 100	> 100	> 100	> 100	> 100	70.4	64.8
